# pIC50, pKi: −log10 of the molar value.
# What was measured:
# [1] = target: T1, 3-hydroxy-3-methylglutaryl-coenzyme A reductase (Homo sapiens, UniProt P04035); design: species or system Escherichia coli;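 note: enzyme inhibition assay of HMG-CoA reductase using radiolabeled [14C]HMG-CoA as substrate; in other assays of this panel Not Active means under 50% inhibition at 10 µM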
# T1 sequence (P04035 whole entry): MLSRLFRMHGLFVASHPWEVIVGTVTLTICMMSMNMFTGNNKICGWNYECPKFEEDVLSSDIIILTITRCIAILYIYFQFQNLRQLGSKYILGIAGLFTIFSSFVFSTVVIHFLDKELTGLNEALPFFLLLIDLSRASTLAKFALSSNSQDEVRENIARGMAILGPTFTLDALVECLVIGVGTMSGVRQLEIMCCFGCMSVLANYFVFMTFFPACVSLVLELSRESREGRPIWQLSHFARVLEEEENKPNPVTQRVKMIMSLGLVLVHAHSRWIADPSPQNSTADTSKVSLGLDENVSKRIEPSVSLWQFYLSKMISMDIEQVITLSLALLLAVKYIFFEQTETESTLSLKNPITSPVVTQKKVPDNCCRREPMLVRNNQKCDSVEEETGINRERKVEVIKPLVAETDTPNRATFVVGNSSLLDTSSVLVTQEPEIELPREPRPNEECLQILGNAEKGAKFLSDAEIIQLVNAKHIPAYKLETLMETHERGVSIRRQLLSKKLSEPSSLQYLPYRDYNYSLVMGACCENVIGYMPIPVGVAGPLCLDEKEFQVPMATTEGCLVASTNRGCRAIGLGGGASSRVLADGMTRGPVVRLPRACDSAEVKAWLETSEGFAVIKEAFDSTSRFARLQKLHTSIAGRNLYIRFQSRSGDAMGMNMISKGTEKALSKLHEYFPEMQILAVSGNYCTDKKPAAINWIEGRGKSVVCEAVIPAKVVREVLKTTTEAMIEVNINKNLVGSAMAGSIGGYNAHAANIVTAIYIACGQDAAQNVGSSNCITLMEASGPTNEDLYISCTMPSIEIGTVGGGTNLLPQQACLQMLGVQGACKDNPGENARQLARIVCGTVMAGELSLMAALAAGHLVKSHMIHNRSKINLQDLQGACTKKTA
# [2] = target: Tyrosine-protein kinase Lck (Homo sapiens, UniProt P06239); test: DRUGMATRIX: Protein Tyrosine Kinase, LCK enzyme inhibition (substrate: Poly(Glu:Tyr)); assay type: cell-based, Insect cells; details: insect cells; Not Active = under 50% inhibition at 10 µM
# Tyrosine-protein kinase Lck, sequence (P06239 whole entry): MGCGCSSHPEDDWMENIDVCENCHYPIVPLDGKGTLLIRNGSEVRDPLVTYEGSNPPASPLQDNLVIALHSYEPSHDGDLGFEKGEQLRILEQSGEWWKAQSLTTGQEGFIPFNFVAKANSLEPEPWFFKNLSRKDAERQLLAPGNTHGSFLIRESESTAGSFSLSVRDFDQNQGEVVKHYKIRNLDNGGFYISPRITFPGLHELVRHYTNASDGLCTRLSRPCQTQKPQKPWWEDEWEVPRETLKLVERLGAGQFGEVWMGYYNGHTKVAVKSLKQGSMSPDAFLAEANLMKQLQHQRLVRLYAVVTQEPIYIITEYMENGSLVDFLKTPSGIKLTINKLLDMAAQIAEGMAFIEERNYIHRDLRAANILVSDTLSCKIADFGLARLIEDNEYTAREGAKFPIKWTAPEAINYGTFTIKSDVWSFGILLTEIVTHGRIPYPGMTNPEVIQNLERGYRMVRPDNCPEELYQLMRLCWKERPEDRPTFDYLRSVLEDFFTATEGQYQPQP
# [3] = target: Sigma non-opioid intracellular receptor 1 (Homo sapiens, UniProt Q99720); test: DRUGMATRIX: Sigma1 radioligand binding (ligand: [3H] Haloperidol); assay type: cell membranes, Jurkat, Membrane; details: Not Active = under 50% inhibition at 10 µM; for pIC50: read-out: IC50; for pKi: read-out: Ki
# Sigma non-opioid intracellular receptor 1, sequence (Q99720 whole entry): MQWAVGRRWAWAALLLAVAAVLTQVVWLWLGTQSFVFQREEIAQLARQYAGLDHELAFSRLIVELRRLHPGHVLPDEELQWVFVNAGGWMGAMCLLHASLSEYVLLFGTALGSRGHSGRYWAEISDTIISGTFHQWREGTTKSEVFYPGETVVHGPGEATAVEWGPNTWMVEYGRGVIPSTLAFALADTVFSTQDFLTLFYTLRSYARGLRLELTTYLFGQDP
# Leukotriene C4 synthase = target: T2, Leukotriene C4 synthase (Cavia porcellus, UniProt A6XA80); test: biochemical; assay type: tissue-based, Lung;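 note: enzyme inhibition assay of leukotriene C4 synthase, using LTA4 as the substrate; in other assays of this panel Not Active means under 50% inhibition at 10 µM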
# T2 sequence (A6XA80 whole entry): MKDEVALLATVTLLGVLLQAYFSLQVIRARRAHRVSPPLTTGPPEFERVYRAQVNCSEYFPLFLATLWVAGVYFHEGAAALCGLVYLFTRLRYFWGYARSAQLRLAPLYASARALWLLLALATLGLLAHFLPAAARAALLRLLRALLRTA
# [4] = target: Beta-3 adrenergic receptor (Homo sapiens, UniProt P13945); test: DRUGMATRIX: Adrenergic beta3 radioligand binding (ligand: [125I] Cyanopindolol); assay type: cell membranes, HEK293, Membrane; details: hek293; Not Active = under 50% inhibition at 10 µM
# Beta-3 adrenergic receptor, sequence (P13945 whole entry): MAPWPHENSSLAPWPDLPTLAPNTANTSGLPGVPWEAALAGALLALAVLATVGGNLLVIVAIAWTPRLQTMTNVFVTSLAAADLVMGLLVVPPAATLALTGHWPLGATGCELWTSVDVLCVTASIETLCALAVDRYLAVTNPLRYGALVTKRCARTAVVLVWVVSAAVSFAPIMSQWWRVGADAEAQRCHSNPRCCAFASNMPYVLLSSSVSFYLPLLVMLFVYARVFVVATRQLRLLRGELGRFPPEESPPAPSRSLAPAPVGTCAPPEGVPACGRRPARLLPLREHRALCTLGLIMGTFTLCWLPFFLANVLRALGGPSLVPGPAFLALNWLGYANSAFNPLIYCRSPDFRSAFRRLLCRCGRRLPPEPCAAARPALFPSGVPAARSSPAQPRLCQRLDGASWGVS
# [5] = target: T3, Alpha-1D adrenergic receptor (Homo sapiens, UniProt P25100); assay type: cell membranes, HEK293, Membrane; details: for pIC50: read-out: IC50; for pKi: read-out: Ki; for all read-outs here: in other assays of this panel Not Active means under 50% inhibition at 10 µM
# T3 sequence (P25100 whole entry): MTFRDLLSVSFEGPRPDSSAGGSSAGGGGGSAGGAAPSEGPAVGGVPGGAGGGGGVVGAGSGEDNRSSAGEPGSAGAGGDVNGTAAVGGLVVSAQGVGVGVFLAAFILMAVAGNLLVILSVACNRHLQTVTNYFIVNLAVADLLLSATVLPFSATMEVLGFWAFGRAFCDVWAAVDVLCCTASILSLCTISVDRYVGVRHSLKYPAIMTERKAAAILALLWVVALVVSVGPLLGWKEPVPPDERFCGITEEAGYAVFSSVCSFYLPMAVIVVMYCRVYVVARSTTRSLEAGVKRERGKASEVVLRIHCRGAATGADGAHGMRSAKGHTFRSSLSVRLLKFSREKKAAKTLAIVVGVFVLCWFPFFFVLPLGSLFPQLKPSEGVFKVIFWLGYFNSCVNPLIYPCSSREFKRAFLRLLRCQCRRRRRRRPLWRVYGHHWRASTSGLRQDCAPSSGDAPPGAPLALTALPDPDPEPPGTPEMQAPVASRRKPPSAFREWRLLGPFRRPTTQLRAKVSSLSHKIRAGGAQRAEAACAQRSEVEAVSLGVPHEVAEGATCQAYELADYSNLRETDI
# [6] = target: T4, Cholecystokinin receptor type A (Homo sapiens, UniProt P32238); assay type: cell membranes, Membrane; details: 1321-n1; note: in other assays of this panel Not Active means under 50% inhibition at 10 µM
# T4 sequence (P32238 whole entry): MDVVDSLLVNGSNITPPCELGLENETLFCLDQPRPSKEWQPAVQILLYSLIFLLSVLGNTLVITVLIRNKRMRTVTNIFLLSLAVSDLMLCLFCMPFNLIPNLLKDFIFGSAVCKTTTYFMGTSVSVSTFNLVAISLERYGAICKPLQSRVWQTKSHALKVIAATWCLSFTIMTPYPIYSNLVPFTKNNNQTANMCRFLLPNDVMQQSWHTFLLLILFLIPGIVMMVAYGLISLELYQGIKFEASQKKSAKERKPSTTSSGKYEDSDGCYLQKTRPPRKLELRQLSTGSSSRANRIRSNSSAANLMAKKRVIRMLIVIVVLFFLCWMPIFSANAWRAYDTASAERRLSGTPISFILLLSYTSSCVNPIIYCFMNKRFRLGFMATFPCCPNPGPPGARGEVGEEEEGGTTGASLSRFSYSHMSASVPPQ
Compound,IC50 [1],IC50 [2],IC50 ([3]; jurkat),IC50 (Leukotriene C4 synthase),IC50 [4],IC50 ([5]; hek293),IC50 [6],pIC50 [5],pKi [5],pIC50 [3],pKi [3],Ki [1],Ki [2],Ki ([3]; jurkat),Ki (Leukotriene C4 synthase),Ki [4],Ki ([5]; hek293),Ki [6]
OC[C@H]1OC2C3[C@@H](CO)OC(O[C@H]4[C@H](O)[C@@H](O)[C@@H](O[C@H]5[C@H](O)[C@@H](O)[C@@H](O[C@H]6[C@H](O)[C@@H](O)[C@@H](O[C@H]7[C@H](O)[C@@H](O)[C@@H](O[C@H]8[C@H](O)[C@@H](O)[C@@H](O[C@H]9[C@H](O)[C@@H](O)C(OC1[C@H](O)[C@H]2O)O[C@@H]9CO)O[C@@H]8CO)O[C@@H]7CO)O[C@@H]6CO)O[C@@H]5CO)O[C@@H]4CO)[C@H](O)[C@H]3O,Not Active,Not Active,Not Active,Not Active,Not Active,Not Active,Not Active,–,–,–,–,–,–,–,–,–,–,–
CO[C@H]1O[C@@H]2O[C@@]3(C)CC[C@H]4[C@H](C)CC[C@@H]([C@H]1C)[C@@]24OO3,Not Active,Not Active,Not Active,Not Active,Not Active,Not Active,Not Active,–,–,–,–,–,–,–,–,–,–,–
CC(C)Cn1cnc2c(N)nc3ccccc3c21 [IMIQUIMOD],Not Active,Not Active,Not Active,Not Active,Not Active,–,Not Active,5.58,5.89,–,–,–,–,–,–,–,–,–
COc1cc(NC(C)CCCN)c2ncccc2c1 (stereo not given) [PRIMAQUINE],Not Active,Not Active,Not Active,Not Active,Not Active,Not Active,Not Active,–,–,–,–,–,–,–,–,–,–,–
O=C(O)COC(=O)Cc1ccccc1Nc1c(Cl)cccc1Cl [ACECLOFENAC],Not Active,Not Active,Not Active,Not Active,Not Active,Not Active,Not Active,–,–,–,–,–,–,–,–,–,–,–
C#C[C@]1(O)CC[C@H]2[C@@H]3CCC4=CC(=O)CC[C@@H]4[C@H]3CC[C@@]21C [NORETHINDRONE],Not Active,Not Active,Not Active,Not Active,Not Active,Not Active,Not Active,–,–,–,–,–,–,–,–,–,–,–
CC(C)(C#N)c1cc(Cn2cncn2)cc(C(C)(C)C#N)c1 [ANASTROZOLE],Not Active,Not Active,Not Active,Not Active,Not Active,Not Active,Not Active,–,–,–,–,–,–,–,–,–,–,–
"O=C(Nc1ccc(Cl)c(Cl)c1)c1cc(Cl)cc(Cl)c1O [3,3',4',5-TETRACHLOROSALICYLANILIDE]",Not Active,Not Active,Not Active,Not Active,Not Active,Not Active,Not Active,–,–,–,–,–,–,–,–,–,–,–
O=C(O)CO [GLYCOLIC ACID],Not Active,Not Active,Not Active,Not Active,Not Active,Not Active,Not Active,–,–,–,–,–,–,–,–,–,–,–
COC(=O)C[C@](O)(CCC(C)(C)O)C(=O)O[C@@H]1C(OC)=C[C@]23CCCN2CCc2cc4c(cc2[C@H]13)OCO4 [HARRINGTONINE],Not Active,Not Active,Not Active,Not Active,Not Active,Not Active,Not Active,–,–,–,–,–,–,–,–,–,–,–
CC(C)(c1ccc(O)cc1)c1ccc(O)cc1 [BISPHENOL A],Not Active,Not Active,Not Active,Not Active,Not Active,Not Active,Not Active,–,–,–,–,–,–,–,–,–,–,–
C=CCO [ALLYL ALCOHOL],Not Active,Not Active,Not Active,Not Active,Not Active,Not Active,Not Active,–,–,–,–,–,–,–,–,–,–,–
C[C@]12CC[C@@H](O)C[C@@H]1CC[C@@H]1[C@@H]2CC[C@]2(C)C(=O)CC[C@@H]12 [ANDROSTERONE],Not Active,Not Active,Not Active,Not Active,Not Active,Not Active,Not Active,–,–,–,–,–,–,–,–,–,–,–
COc1ccc(Cl)cc1C(=O)NCCc1ccc(S(=O)(=O)NC(=O)NC2CCCCC2)cc1 [GLYBURIDE],Not Active,Not Active,Not Active,Not Active,Not Active,Not Active,Not Active,–,–,–,–,–,–,–,–,–,–,–
CC(CN1c2ccccc2Sc2ccccc21)N(C)C (stereo not given) [PROMETHAZINE],Not Active,Not Active,–,Not Active,Not Active,–,Not Active,6.74,7.05,6.54,6.92,–,–,–,–,–,–,–
C[N+](C)(C)CCOP(=O)([O-])OC[C@H](O)CO,Not Active,Not Active,Not Active,Not Active,Not Active,Not Active,Not Active,–,–,–,–,–,–,–,–,–,–,–
NCC(CC(=O)O)c1ccc(Cl)cc1 (stereo not given) [BACLOFEN],Not Active,Not Active,Not Active,Not Active,Not Active,Not Active,Not Active,–,–,–,–,–,–,–,–,–,–,–
CC12CCC(CC1=O)C2(C)C (stereo not given) [CAMPHOR],Not Active,Not Active,Not Active,Not Active,Not Active,Not Active,Not Active,–,–,–,–,–,–,–,–,–,–,–
POVIDONE,Not Active,Not Active,Not Active,Not Active,Not Active,Not Active,Not Active,–,–,–,–,Not Active,Not Active,Not Active,Not Active,Not Active,Not Active,Not Active
CN(Cc1cc(Br)cc(Br)c1N)C1CCCCC1 [BROMHEXINE],Not Active,Not Active,–,Not Active,Not Active,Not Active,Not Active,–,–,7.21,7.60,–,–,–,–,–,–,–
Cc1ccnc2c1NC(=O)c1cccnc1N2C1CC1 [NEVIRAPINE],Not Active,Not Active,Not Active,Not Active,Not Active,Not Active,Not Active,–,–,–,–,–,–,–,–,–,–,–
CCN1CCN(C(=O)N[C@@H](C(=O)N[C@@H]2C(=O)N3[C@@H]2SC(C)(C)[C@@H]3C(=O)O)c2ccccc2)C(=O)C1=O [PIPERACILLIN],Not Active,Not Active,Not Active,Not Active,Not Active,Not Active,Not Active,–,–,–,–,–,–,–,–,–,–,–

# From ChEMBL document CHEMBL1909046, “DrugMatrix in vitro pharmacology data”
